According to ChEMBL document CHEMBL1671731, “Fluoroquinolone efflux by the plasmid-mediated multidrug efflux pump QacB variant QacBIII in Staphylococcus aureus” (2010):
≈ marks a conversion by molar mass, not a printed value. Calls of active or inactive are those of the source. No cut-off for these calls is given here.

Legend:
[1] = system: Staphylococcus aureus; assay: Antimicrobial activity against Staphylococcus aureus RDN1 harboring cloned pTZ2162-encoded QacBIII gene by agar dilution method; assay type: functional
[2] = system: Staphylococcus aureus; assay: Antimicrobial activity against Staphylococcus aureus RDN1 harboring cloned pTZ2238-encoded QacBIV S151I mutant gene by agar dilution method; assay type: functional
[3] = system: Staphylococcus aureus; assay: Antimicrobial activity against Staphylococcus aureus RDN1 harboring cloned pTZ2238-encoded QacBIV gene by agar dilution method; assay type: functional
[4] = system: Staphylococcus aureus; assay: Antimicrobial activity against Staphylococcus aureus RDN1 harboring cloned pTZ2182-encoded QacBII gene by agar dilution method; assay type: functional
[5] = system: Staphylococcus aureus; assay: Antimicrobial activity against Staphylococcus aureus RDN1 harboring cloned pTZ2238-encoded QacBIV A19T mutant gene by agar dilution method; assay type: functional
[6] = system: Staphylococcus aureus; assay: Antimicrobial activity against Staphylococcus aureus RDN1 harboring cloned pTZ2238-encoded QacBIV E377G mutant gene by agar dilution method; assay type: functional
[7] = system: Staphylococcus aureus; assay: Antimicrobial activity against Staphylococcus aureus RDN1 harboring cloned pTZ2162-encoded QacBIII E320A mutant gene by agar dilution method; assay type: functional
[8] = system: Staphylococcus aureus; assay: Antimicrobial activity against Staphylococcus aureus RDN1 harboring cloned pTZ2238-encoded QacBIV A184V mutant gene by agar dilution method; assay type: functional
[9] = system: Staphylococcus aureus; assay: Antimicrobial activity against Staphylococcus aureus RDN1 harboring cloned pTZ2396-encoded QacA gene by agar dilution method; assay type: functional
[10] = system: Staphylococcus aureus; assay: Antimicrobial activity against Staphylococcus aureus RDN1 harboring cloned pTZN10 containing cat and bla genes by agar dilution method; assay type: functional
[11] = Activity of antiseptic efflux protein QacBIII expressed in Staphylococcus aureus RDN1 assessed as decrease in compound accumulation
[12] = Activity of antiseptic efflux protein QacBIII expressed in Staphylococcus aureus RDN1 assessed as decrease in compound accumulation in presence of CCCP

With `[Cl-].c1ccc([P+](c2ccccc2)(c2ccccc2)c2ccccc2)cc1` [TETRAPHENYLPHOSPHONIUM CHLORIDE] the MIC [1] was 512 µg/mL, the MIC [2] was 512 µg/mL and the MIC [3] was 512 µg/mL. The MIC [4] was 256 µg/mL, the MIC [5] was 512 µg/mL and the MIC [6] was 512 µg/mL. The MIC [7] was 256 µg/mL, the MIC [8] was 512 µg/mL and the MIC [9] was 256 µg/mL. The MIC [10] was 4 µg/mL.

`C[C@H]1COc2c(N3CCN(C)CC3)c(F)cc3c(=O)c(C(=O)O)cn1c23.C[C@H]1COc2c(N3CCN(C)CC3)c(F)cc3c(=O)c(C(=O)O)cn1c23.O` [LEVOFLOXACIN] showed an MIC [1] of 0.25 µg/mL, an MIC [3] of 0.25 µg/mL and an MIC [4] of 0.25 µg/mL. It also gave an MIC [7] of 0.25 µg/mL, an MIC [9] of 0.25 µg/mL and an MIC [10] of 0.25 µg/mL.

In the case of `N=C(N)c1ccc(OCCCCCOc2ccc(C(=N)N)cc2)cc1.O=S(=O)(O)CCO`, the MIC [1] was 512 µg/mL, the MIC [2] was 1020 µg/mL and the MIC [3] was 1020 µg/mL. For the same compound, the MIC [4] was 512 µg/mL, the MIC [5] was 1020 µg/mL and the MIC [6] was 512 µg/mL. It also gave an MIC [7] of 512 µg/mL, an MIC [8] of 1020 µg/mL and an MIC [9] of 512 µg/mL. For the same compound, the MIC [10] was 1 µg/mL.

`CN(C)c1ccc(C(=C2C=CC(=[N+](C)C)C=C2)c2ccc(N(C)C)cc2)cc1.[Cl-]` [GENTIAN VIOLET] showed an MIC [1] of 0.5 µg/mL, an MIC [2] of 0.5 µg/mL and an MIC [3] of 0.5 µg/mL. For the same compound, the MIC [4] was no less than 1 µg/mL, the MIC [5] was 0.5 µg/mL and the MIC [6] was no less than 1 µg/mL. For the same compound, the MIC [7] was no less than 1 µg/mL, the MIC [8] was 0.5 µg/mL and the MIC [9] was no less than 1 µg/mL. It also gave an MIC [10] of 0.13 µg/mL.

With `O=C(O)c1cn(C2CC2)c2cc(N3CCNCC3)c(F)cc2c1=O` [CIPROFLOXACIN] the MIC [1] was 0.25 µg/mL (≈ 0.754 µM), the MIC [3] was 0.06 µg/mL (≈ 0.181 µM) and the MIC [4] was 0.06 µg/mL (≈ 0.181 µM). For the same compound, the MIC [7] was 0.06 µg/mL (≈ 0.181 µM), the Activity [11] was “Active” and the Activity [12] was “inactive”. It also gave an MIC [9] of 0.13 µg/mL (≈ 0.392 µM) and an MIC [10] of 0.06 µg/mL (≈ 0.181 µM).

Work on `N=C(NCCCCCCNC(=N)NC(=N)Nc1ccc(Cl)cc1)NC(=N)Nc1ccc(Cl)cc1.O=C(O)[C@H](O)[C@@H](O)[C@H](O)[C@H](O)CO` yielded an MIC [1] of 2 µg/mL, an MIC [2] of 4 µg/mL and an MIC [3] of 4 µg/mL. For the same compound, the MIC [4] was 4 µg/mL, the MIC [5] was 4 µg/mL and the MIC [6] was 2 µg/mL. The MIC [7] was 4 µg/mL, the MIC [8] was 4 µg/mL and the MIC [9] was 2 µg/mL. For the same compound, the MIC [10] was 0.25 µg/mL.

`C[n+]1c2cc(N)ccc2cc2ccc(N)cc21.[Cl-]` [EUFLAVINE] showed an MIC [1] of 256 µg/mL, an MIC [2] of 1020 µg/mL and an MIC [3] of 1020 µg/mL. The MIC [4] was 1020 µg/mL, the MIC [5] was 1020 µg/mL and the MIC [6] was 1020 µg/mL. The MIC [7] was 1020 µg/mL, the MIC [8] was 1020 µg/mL and the MIC [9] was 1020 µg/mL. For the same compound, the MIC [10] was 1 µg/mL.

Work on `CCn1cc(C(=O)O)c(=O)c2cc(F)c(N3CCNCC3)cc21` [NORFLOXACIN] yielded an MIC [1] of 0.5 µg/mL (≈ 1.57 µM), an MIC [3] of 0.13 µg/mL (≈ 0.407 µM) and an MIC [4] of 0.13 µg/mL (≈ 0.407 µM). For the same compound, the MIC [7] was 0.13 µg/mL (≈ 0.407 µM), the Activity [11] was “Active” and the Activity [12] was “inactive”. For the same compound, the MIC [9] was 0.25 µg/mL (≈ 0.783 µM) and the MIC [10] was 0.13 µg/mL (≈ 0.407 µM).

In the case of `CC(=O)NCC(=O)O.N=C(N)c1ccc(/N=N/Nc2ccc(C(=N)N)cc2)cc1` [DIMINAZEN ACETURATE], the MIC [1] was 1020 µg/mL, the MIC [2] was 2050 µg/mL and the MIC [3] was 2050 µg/mL. The MIC [4] was 512 µg/mL, the MIC [5] was 2050 µg/mL and the MIC [6] was 512 µg/mL. The MIC [7] was 512 µg/mL, the MIC [8] was 2050 µg/mL and the MIC [9] was 2050 µg/mL. The MIC [10] was 4 µg/mL.

Work on `CC[n+]1c(-c2ccccc2)c2cc(N)ccc2c2ccc(N)cc21.[Br-]` [HOMIDIUM BROMIDE] yielded an MIC [1] of 256 µg/mL, an MIC [2] of no less than 2050 µg/mL and an MIC [3] of no less than 2050 µg/mL. It also gave an MIC [4] of no less than 2050 µg/mL, an MIC [5] of no less than 2050 µg/mL and an MIC [6] of no less than 2050 µg/mL. It also gave an MIC [7] of no less than 2050 µg/mL, an MIC [8] of no less than 2050 µg/mL and an MIC [9] of no less than 2050 µg/mL. It also gave an MIC [10] of 1 µg/mL.
